The values that follow come from patent US9593148B2, “DPP8 and DPP9 peptide inhibitors” (GEORG-AUGUST-UNIVERSITAT GOTTINGEN STIFTUNG OFFENTLICHEN …, priority 2012, dated 2017).

The target of data set [1] is T1, DPP9 (Homo sapiens, UniProt Q86TI2).
T1 construct: made in house; host or cells: Sf9 insect cells (baculovirus)
The data set is described as follows: Kinetics assay, Ki for inhibition of DPP9 (GP-AMC hydrolysis). The class given is biochemical. On the procedure: (§1) Enzyme kinetics and the Ki of DPP8 or DPP9 may be determined as follows: 25 nM purified recombinant enzyme (DPP9 or DPP8) are incubated with varying concentrations of GP-AMC ([…] GP-AMC), in TB buffer (20 mM Hepes/KOH pH 7.3, 110 mM potassium acetate, 2 mM Mg acetate, 0.5 mM EGTA), supplemented with 0.2% Tween-20, 1 mM dithiothreitol. Experiments are performed in triplicates. To measure Ki values, for each set of experiments, inhibitory peptides are added to DPP9 or DPP8. Peptide concentrations tested are in the range between 0.04 to 50 μM. Release of AMC from GP-AMC is measured using the Appliskan microplate fluorimeter (Thermo Scientific) with 380 nm (excitation) and 480 nm (emission) filters and the Skanit software, and analysed using the Prism software.
(§2) A&B 25 nM purified recombinant (A) DPP9 or (B) DPP8 were incubated with varying concentrations of the EIL peptide (0, 3.3 μM and 6.6 μM) and tested for hydrolysis of GP-AMC (1000, 500, 250, 125, 0 μM). C. 25 nM DPPIV was tested for the hydrolysis of GP-AMC (500, 250, 125, 0 μM) in the presence of 0 or 13 μM EIL peptide. Fluorescence was measured using the Appliskan microplate fluorimeter (Thermo Scientific) with 380 nm (excitation) and 480 nm (emission) filters and the Skanit software, and analysed using the Prism software. Each experiment was performed at least three times, in replicates of four.
(§3) Kinetics assays: Purified recombinant DPP9 (25 nM) was incubated with varying concentrations of GP-AMC, in TB supplemented with 0.2% Tween-20, 1 mM ditiothreitol. For inhibition assays, inhibitory peptides were added directly to the reaction mixture. For activation by SUMO 0.2 mg/ml BSA, was added to the buffer to prevent non specific binding. DPP9 were incubated with 2.5 μM of either SUMO1, SUMO1 E67A, SUMO2 for 2 hour on ice prior to the assay. Alternatively DPP9 was incubated with 1 μM of RanGAP or RanGAP modified with either SUMO1 or SUMO2 for 2 hours prior to the assay. Fluorescence was measured using the Appliskan microplate fluorimeter (Thermo Scientific) with 380 nm (excitation) and 480 nm (emission) filters and the Skanit software, and analysed using the Prism software. Each experiment was performed at least three times, in replicates of four.

The target of data set [2] is T1, DPP9. The data set is described as follows: Inhibition of GP-AMC hydrolysis by purified recombinant DPP9 at a single peptide concentration. The class given is biochemical. Conditions: 25 nM DPP9, 0.2 mM GP-AMC. On the procedure: Accordingly, the peptide is capable of inhibiting the activity of wild-type DPP9 (SEQ ID NO: 6) to a level of 35 to 5% of the activity of wild-type DPP9 (SEQ ID NO: 6) if not inhibited, as determined in an assay using 25 nM purified DPP9, 0.2 mM GP-AMC, and 14 μM of the peptide to be tested, in TB buffer (20 mM Hepes/KOH pH 7.3, 110 mM potassium acetate, 2 mM Mg acetate, 0.5 mM EGTA), supplemented with 0.2% Tween-20, 1 mM dithiothreitol. Release of AMC from GP-AMC is measured using the Appliskan microplate fluorimeter (Thermo Scientific) with 380 nm (excitation) and 480 nm (emission) filters and the Skanit software, and analysed using the Prism software.
as §3
To improve the inhibition of DPP9, the inventors tested several peptide libraries composed of truncated variants of the EIL peptide (>80% pure, ordered from Genescript). These peptides were incubated with recombinant DPP9 and analysed GP-AMC hydrolysis. AMC release was then compared to samples containing either DPP9 alone, or the EIL peptide.

The test system of data set [3] is cytosolic prolyl peptidase activity (HeLa cytosolic fractions). The data set is described as follows: GP-AMC hydrolysis in HeLa cytosolic fractions incubated with peptide. The class given is biochemical, human. As to the method: HeLa cytosolic fractions were incubated with 0, 27.7 or 55.6 μM peptide EIL, and immediately tested for hydrolysis of varying concentrations of A. GP-AMC or B. R-AMC. Fluorescence was measured using the Appliskan microplate fluorimeter (Thermo Scientific) with 380 nm (excitation) and 480 nm (emission) filters and the Skanit software, and analysed using the Prism software. Each experiment was performed at least three times, in replicates of four.
Since the EIL peptide can displace SUMO1 from a DPP9-SUMO1 or a DPP8-SUMO1 complex (FIG. 2D), the inventors tested whether the EIL peptide would inhibit the association-dependent activation of DPP8 and DPP9 by SUMO1 in cell extracts. For this the inventors incubated cytosolic extracts with the EIL peptide and tested for the hydrolysis of GP-AMC (FIG. 8A). […] For control, the inventors also measured the hydrolysis of R-AMC, which is not a substrate for DPP8 or DPP9 (FIG. 8B).

For another data set, the target named is T2, DPP8 (Homo sapiens, UniProt Q6V1X1).
T2 construct: made in house; host or cells: Sf9 insect cells (baculovirus)
T2 sequence (Q6V1X1 whole entry): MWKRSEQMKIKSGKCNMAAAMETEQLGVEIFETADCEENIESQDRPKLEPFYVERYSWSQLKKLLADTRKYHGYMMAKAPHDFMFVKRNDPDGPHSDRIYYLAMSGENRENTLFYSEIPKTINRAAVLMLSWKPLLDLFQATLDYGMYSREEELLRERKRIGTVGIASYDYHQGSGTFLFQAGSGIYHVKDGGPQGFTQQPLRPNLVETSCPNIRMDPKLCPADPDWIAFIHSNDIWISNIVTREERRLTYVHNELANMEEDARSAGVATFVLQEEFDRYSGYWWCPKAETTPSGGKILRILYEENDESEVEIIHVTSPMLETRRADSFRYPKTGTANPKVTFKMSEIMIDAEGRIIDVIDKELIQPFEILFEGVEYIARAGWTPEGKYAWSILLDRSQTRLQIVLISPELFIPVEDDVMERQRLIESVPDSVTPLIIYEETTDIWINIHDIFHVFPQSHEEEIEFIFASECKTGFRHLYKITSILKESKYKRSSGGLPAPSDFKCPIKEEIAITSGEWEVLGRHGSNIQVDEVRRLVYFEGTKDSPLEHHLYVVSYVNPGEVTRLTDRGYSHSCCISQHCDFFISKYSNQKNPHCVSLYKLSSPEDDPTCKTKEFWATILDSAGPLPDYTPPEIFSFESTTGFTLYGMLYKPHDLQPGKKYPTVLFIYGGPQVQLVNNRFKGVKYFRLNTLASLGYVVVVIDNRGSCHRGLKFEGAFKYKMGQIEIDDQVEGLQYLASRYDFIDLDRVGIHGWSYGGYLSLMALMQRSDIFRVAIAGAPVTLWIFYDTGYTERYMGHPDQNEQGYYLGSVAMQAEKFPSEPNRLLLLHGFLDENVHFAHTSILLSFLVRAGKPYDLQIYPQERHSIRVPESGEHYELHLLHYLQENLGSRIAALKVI
Put plainly: Kinetics assay, Ki for inhibition of DPP8 (GP-AMC hydrolysis). The class given is biochemical. As to the method: as §1, §2

A further data set deals with DPPIV (Homo sapiens, UniProt P27487). Put plainly: GP-AMC hydrolysis by DPPIV in the presence of peptide. The class given is biochemical. Conditions: 25 nM DPPIV, 13 μM peptide. As to the method:
Preferably, the peptide is capable of inhibiting the activity by wild-type DPP9 (SEQ ID NO: 6) to a level of 30 to 5%, 29 to 5%, 28 to 5%, 27 to 5%, 26 to 5%, 25 to 5%, 24 to 5%, 23 to 5%, 22 to 5%, 21 to 5%, 20 to 5%, 19 to 5%, 18 to 5%, 17 to 5%, 16 to 5%, 15 to 5%, 14 to 5%, 13 to 5%, 12 to 5%, 11 to 5%, 10 to 5%, 9 to 5%, 8 to 5%, such as 7.5 to 5% of the activity of wild-type DPP9 (SEQ ID NO: 6) if not inhibited. […] Release of AMC from GP-AMC is measured using the Appliskan microplate fluorimeter (Thermo Scientific) with 380 nm (excitation) and 480 nm (emission) filters and the Skanit software, and analysed using the Prism software.
as §2

The target in a further data set is T3, DPP9-SUMO1 interaction (Homo sapiens, UniProt Q86TI2).
T3 construct: made in house; host or cells: DPP9: Sf9 insect cells
T3 sequence (Q86TI2 1-892 isoform Q86TI2-2): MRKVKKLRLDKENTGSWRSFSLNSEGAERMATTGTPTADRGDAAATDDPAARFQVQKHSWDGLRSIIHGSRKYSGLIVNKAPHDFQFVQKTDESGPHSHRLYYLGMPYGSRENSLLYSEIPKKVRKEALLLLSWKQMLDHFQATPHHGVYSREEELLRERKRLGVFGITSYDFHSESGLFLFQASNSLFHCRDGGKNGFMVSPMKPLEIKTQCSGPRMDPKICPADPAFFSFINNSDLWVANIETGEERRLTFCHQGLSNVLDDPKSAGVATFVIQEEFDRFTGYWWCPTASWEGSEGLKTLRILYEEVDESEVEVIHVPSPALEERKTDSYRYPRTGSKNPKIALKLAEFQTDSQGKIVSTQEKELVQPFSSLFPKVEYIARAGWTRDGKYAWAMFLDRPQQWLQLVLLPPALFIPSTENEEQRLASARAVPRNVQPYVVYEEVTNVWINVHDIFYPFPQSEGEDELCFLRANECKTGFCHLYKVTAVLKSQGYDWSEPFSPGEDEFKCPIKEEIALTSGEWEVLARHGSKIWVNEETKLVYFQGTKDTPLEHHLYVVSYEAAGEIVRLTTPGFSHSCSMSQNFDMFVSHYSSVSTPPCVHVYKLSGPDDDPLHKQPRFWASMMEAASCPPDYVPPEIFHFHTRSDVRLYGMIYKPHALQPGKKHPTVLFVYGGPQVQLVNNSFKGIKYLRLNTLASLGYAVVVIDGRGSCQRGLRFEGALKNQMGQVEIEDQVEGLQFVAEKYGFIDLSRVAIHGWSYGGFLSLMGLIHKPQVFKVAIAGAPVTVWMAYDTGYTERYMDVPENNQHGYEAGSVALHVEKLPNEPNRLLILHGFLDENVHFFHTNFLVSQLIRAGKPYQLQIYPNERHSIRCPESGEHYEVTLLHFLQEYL
The data set is described as follows: Peptide competition of DPP9 binding to SUMO1-immobilized beads (pull down). The conditions noted are these: 500 ng recombinant DPP9, peptide 0.1 mg/ml. On the procedure: Ovalbumin (Ov) coupled beads were used for control. Bound proteins were detected by western blotting using specific antibodies. B. Shown is a pull down assay as in A with recombinant DPP9, DPP8, Uba2 or GST-PIAS3. C. Recombinant DPP9 was incubated with 15 mer peptides of a peptide library covering SUMO1 amino acid sequence. The DPP9-peptide solutions were then incubated with SUMO1-immobilized beads. Following extensive washing steps, bound DPP9 was eluted with sample buffer and detected DPP9-specific antibodies. D. Recombinant DPP8 and DPP9 were incubated with SUMO1-immobilized beads. To elute bound proteins, beads were incubated with either SUMO1-peptide 5 (overlapping SIG) or with SUMO1-peptide 9. […] Interacting DPP9 was detected using a DPP9 specific antibody. […] Interacting proteins were eluted with sample buffer and detected using specific antibodies. […]
To study the preferential association of DPP8 and DPP9 with SUMO1 but not SUMO2, the inventors aimed to identify the surfaces on SUMO1 involved in these interactions. First the inventors analysed the interaction of DPP9 with SUMO1 mutants in residues which were previously shown via NMR and crystal structures to interact with SIM containing proteins (Song et al, 2004; Hecker et al, 2006; Reverter & Lima, 2005). […] SUMO1-peptides 5 or 9 were then added and the release of bound DPP8 or DPP9 from the SUMO beads was analysed by SDS-PAGE (FIG. 2D). […]

[4] abbreviates: 25 nM DPP9, 0, 5 or 20 μM peptide, GP-AMC 0-500 μM, read-out: Ki (μM) for inhibition of DPP9.
[5] abbreviates: 10 μM peptide, DPP9 alone = 100.3.
The mark [6] stands for this setting: 14 μM peptide, no peptide = 100.

Read-outs that look alike come from different tables or passages of the source. No end group written: not given here.

T1 sequence (Q86TI2 1-892 isoform Q86TI2-2): as above
Chain of DPPIV (P27487 whole entry): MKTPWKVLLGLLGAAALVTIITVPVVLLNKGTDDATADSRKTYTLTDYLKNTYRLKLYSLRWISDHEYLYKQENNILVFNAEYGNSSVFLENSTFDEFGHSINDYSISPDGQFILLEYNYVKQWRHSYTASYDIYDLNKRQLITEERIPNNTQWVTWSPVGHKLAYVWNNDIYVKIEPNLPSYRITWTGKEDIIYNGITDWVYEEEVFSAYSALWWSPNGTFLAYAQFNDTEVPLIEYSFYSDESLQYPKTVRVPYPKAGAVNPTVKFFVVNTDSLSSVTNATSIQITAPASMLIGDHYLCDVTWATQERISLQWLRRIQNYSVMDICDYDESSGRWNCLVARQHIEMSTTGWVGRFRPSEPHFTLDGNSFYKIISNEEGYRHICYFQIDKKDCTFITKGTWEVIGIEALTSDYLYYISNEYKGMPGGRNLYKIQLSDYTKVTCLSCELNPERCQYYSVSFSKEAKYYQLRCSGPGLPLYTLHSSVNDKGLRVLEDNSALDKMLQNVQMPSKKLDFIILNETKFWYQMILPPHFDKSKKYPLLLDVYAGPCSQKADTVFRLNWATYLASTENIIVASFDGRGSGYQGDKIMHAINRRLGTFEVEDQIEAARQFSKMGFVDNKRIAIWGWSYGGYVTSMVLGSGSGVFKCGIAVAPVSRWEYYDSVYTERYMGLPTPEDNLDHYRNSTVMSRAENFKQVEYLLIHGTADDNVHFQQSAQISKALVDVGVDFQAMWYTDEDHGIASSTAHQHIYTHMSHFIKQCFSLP

With H-SLRFLFEG, the inhibition constant Ki (usually a dissociation constant, usually derived from enzyme kinetics or from competition with a known ligand) at DPP9 [1] (setting [4]) is 2 µM. For the same substance, the “% DPP9 activity (Mean)” value on DPP9 [2] (setting [5]) was determined as 24.08%.
Take SLRFLFEGQR (EIL peptide variant): the “% DPP9 activity (Mean)” value with DPP9 [2] (setting [6]) was found to be 24.27%.
Consider “TLRFLFEG (SLRFLFEG; EIL variant peptide)”, for which the “% DPP9 activity (Mean)” value in the data set with DPP9 [2] (setting [5]) came out at 29.2%.
“RRRRSLRFLFEG (RRRRSLRFLYAG; EIL variant peptide)”: the “% DPP9 activity (Mean)” value with DPP9 [2] (setting [5]) is recorded as 92.2%.
In the case of H-SLRFLFAGQRIADNH, at DPP9 [1] (setting [4]), the Ki was found to be 1.43 µM. The “% DPP9 activity (Mean)” value on DPP9 [2] (setting [6]) was 5.093%.
On to LFEGQRIADNH (EIL peptide variant), for which the “% DPP9 activity (Mean)” value in the data set with DPP9 [2] (setting [6]) worked out at 67.77%.
For H-SLRFLYEGQRIADNH, the Ki on DPP9 [1] (setting [4]) was found to be 2.56 µM. Moreover, the “% DPP9 activity (Mean)” value on DPP9 [2] (setting [6]) worked out at 13.06%.
On to LFEGQR (FLIEGQRI; EIL peptide variant), for which the “% DPP9 activity (Mean)” value with DPP9 [2] (setting [6]) is 51%.
For “SLRFLFEGQ (LRFLFEGQRIADN; EIL peptide variant)”, the “% DPP9 activity (Mean)” value with DPP9 [2] (setting [6]) was 16.43%.
Turning to SLRFLFEGQRIADNH, in data set [3] (HeLa cytosolic extracts), the “stability of the peptide in cytosolic extracts” value is reported as “stable in cytosolic extracts”. For the same substance, the inhibitory constant (Ki) at DPP8 came out at 8.4 µM; on DPP9 [1] (setting [4]), 7.32 µM; at DPP9 [1] (read-out: Ki for DPP9) it was 7.4 µM.
As to “FEGQRIADNH (SLRFLFEGQRIAD; EIL peptide variant)”, the “% DPP9 activity (Mean)” value in the data set with DPP9 [2] (setting [6]) came to 97.12%.
In the case of FLFEGQRI (EIL peptide variant), the “% DPP9 activity (Mean)” value with DPP9 [2] (setting [6]) worked out at 48.41%.
On to Acet-SLRFLFEG, for which the “% DPP9 activity (Mean)” value on DPP9 [2] (setting [5]) stood at 90.74%.
In the case of “SLRFLFEAQRIADNH (LRFLFEGQRIADNH; EIL peptide variant)”, in the data set with DPP9 [2] (setting [6]), the “% DPP9 activity (Mean)” value worked out at 19.46%.
With “AAASLRFLYEG (SLRFLYEGAAA; EIL variant peptide)”, the “% DPP9 activity (Mean)” value with DPP9 [2] (setting [5]) amounted to 91.15%.
Regarding H-SLRFLFEGQRIADNH, the “degradation of GP-AMC in cytosolic extracts” value in data set [3] (HeLa cytosolic fractions, 0, 27.7 or 55.6 μM peptide) is “strongly reduced”. The “inhibition of DPPIV” value at DPPIV is listed as “not inhibited”. Moreover, the “% DPP9 activity (Mean)” value on DPP9 [2] (setting [6]) was found to be 27.45%. Besides, the “binding of DPP9 to the SUMO1 beads after pre-incubation with peptide” value at DPP9-SUMO1 interaction is listed as “strongly reduced”.
